# Measurements reported in patent US20210386665A1, “INHALATION POWDER MEDICINE, EVALUATION METHOD THEREOF, AND USE THEREOF” (MEIJO UNIVERSITY EDUCATIONAL FOUNDATION, priority 2018, published 2021).
# Test: Anti-hygroscopic and hygroscopic property by dynamic vapor sorption (DVS)
# Format: physicochemical
# Conditions: raw powders; DVS 37° C., 50 to 95% RH
# Procedure: For each SFD preparation prepared in Example 1 and each raw powder (Leu, Man, Tre, FlNa) in compositions, using a Dynamic Vapor Sorption measuring instrument (DVS: Dynamic Vapor Sorption; DVS advantage, Surface Measurement Systems), anti-hygroscopic property and hygroscopic growth from inhalation to the respiratory tract and deep lungs in high humidity were evaluated.
# By a DVS, the mass change of a sample filled on one side of the balance-type measuring unit due to the adsorption and desorption of water in a set temperature and humidity environment can be monitored on a second scale. Regarding the setting of conditions for moisture absorption growth evaluation, to reproduce the temperature and humidity environment changes until the powder fine particles reach the deep lungs, the environment before inhalation was set to “temperature: 37° C., relative humidity (RH): 50% (absolute humidity: […])” and the lung environment after inhalation was set to “temperature: 37° C., 95% RH (absolute humidity: 41.62 g/m^3)”.
row,mass change rate,SMILES
1,about 0.08%,"CC(C)C[C@H](N)C(=O)O [Leu, L-leucine]"
2,~0.29%,"OC[C@@H](O)[C@@H](O)[C@H](O)[C@H](O)CO [Man, D-(−)-mannitol]"
3,~22%,"OC[C@H]1O[C@H](O[C@H]2O[C@H](CO)[C@@H](O)[C@H](O)[C@H]2O)[C@H](O)[C@@H](O)[C@@H]1O [Tre, D-(+)-trehalose]"
